Consider nine compounds from patent publication US9603980B2, “Layer-by-layer stereocomplexed polymers as drug depot carriers or coatings in medical devices” (Cardinal Health Switzerland 515 GmbH, priority 2008, dated 2017).

The nature of series [1]: In vivo release kinetics from stent coatings, porcine pharmacokinetics studies.
Source text: The topcoat is two hundred micro grams.
(§1) The basecoat is applied to Bx Velocity® stents and implanted into Yorkshire pigs.
as §1

In series [2] the test system is human coronary artery smooth muscle cells. The series can be described thus: Anti-proliferative activity in non-synchronized cultured cells stimulated with two percent fetal bovine serum. It is filed as cell-based. The source says: The multiple curves represent various concentrations of mycophenolic acid ranging from zero to one thousand nanomolar concentrations.
FIG. 58 illustrates, in graphical format, the anti-proliferative activity of cladribine in non-synchronized cultured human coronary artery smooth muscle cells stimulated with two percent fetal bovine serum.
The multiple curves represent various concentrations of cladribine ranging from zero to nine hundred nanomolar concentrations.

In series [3] the test system is tumor cell lines. Particulars: cited from earlier work.
In series [4] the test system is human coronary artery smooth muscle cell. Kind of series: Inhibition of coronary artery smooth muscle cell proliferation by trichostatin A, in vitro cell culture study. The series is classed as cell-based. The source says:
FIG. 51 is a graph of the inhibition of coronary artery smooth muscle cells by trichostatin A in a cell culture study.

The test system of series [5] is human coronary artery smooth muscle cells. Kind of series: Antiproliferative effects of PX867 on cultured cells. It is filed as cell-based. The text has this: A PI3 kinase inhibitor can affect restinosis when administered by local or systemic delivery alone or in combination with sirolimus. FIGS. 87 and 88 illustrate the antiproliferative effects of PX867 on cultured human coronary artery smooth muscle cells alone (FIG. 87) or in combination with sirolimus (FIG. 88). […] Curve 8702 illustrates the percent inhibition for various concentrations. In FIG. 88, the six curves 8802, 8804, 8806, 8808, 8810 and 8812 represent various concentrations of PX867 with various concentrations of sirolimus. […] More specifically, curve 8812 illustrates the percent inhibition for a 240 nM PX-867 concentration. […] This may be compared to curve 8804 which represents a 15 nM PX-867 concentration. As one can see, the percent inhibition increases as the concentration of sirolimus increases. Accordingly, a potent PI3 kinase inhibitor, such as PX-867, can improve the inhibition of coronary artery smooth muscle cell proliferation either as a stand alone treatment or via combination with another restenotic agent, such as sirolimus.

Series [6] is described as follows: Drug concentration in liquid formulations (liquid chromatography / HPLC assay). It is filed as physicochemical. The text has this: In accordance with exemplary embodiments of the present invention, a series of liquid formulations were developed for the local or regional delivery of water insoluble compounds such as sirolimus and its analogs, including CCI-779, ABT-578 and everolimus, through weeping balloons and catheter injection needles. […] These liquid formulations increase the apparent solubility of the pharmacologically active but water insoluble compounds by two to four orders of magnitude as compared to the solubility limits of the compounds in water. These liquid formulations rely on the use of a very small amount of organic solvents such as Ethanol (typically less than two percent) and a larger amount of safe amphiphilic (of or relating to a molecule having a polar, water soluble group attached to a non-polar, water insoluble […]) excipients such as polyethylene glycol (PEG 200, PEG 400) and vitamin E TPGS to enhance the solubility of the compounds. These liquid formulations of highly water insoluble compounds are stable and readily flowable at room temperature. Certain excipients, such as Vitamin E TPGS and BHT may be utilized to enhance the storage stability of sirolimus compounds through their anti-oxidation properties. […]

In series [7] the test system is human coronary artery smooth muscle cell. The series can be described thus: MTS cytotoxicity assay. It is filed as cell-based. The settings on record: concentrations up to 30,000.00 nanomolar (6.6 to 30,000.00 nanomolar tested). The source says:
Typically, a control is utilized to determine baseline toxicity.
On the technique in general: Formazan colour is commonly taken as a measure of viable cells.

In series [8] the test system is human coronary artery smooth muscle cells. Kind of series: Anti-proliferative activity in synchronized cultured cells stimulated with two percent fetal bovine serum. The series is classed as cell-based. The source says: (§2) The multiple curves represent various concentrations of topotecan ranging from zero to three hundred nanomolar concentrations.
(§3) The multiple curves represent various concentrations of etoposide ranging from zero to eight hundred nanomolar concentrations.
The multiple curves represent various concentrations of Panzem® ranging from zero to 100 micromolar concentrations.

Series [9] concerns cell viability. The series can be described thus: Cell viability assay. It is filed as cell-based.
Source text: as §2, §3

For series [10], the system named is human smooth muscle cells. The series can be described thus: Cladribine Example: PDGF-stimulated cell proliferation, cell count on day six. The series is classed as cell-based. Particulars: from IC50 values. The protocol:
To assess the ability of cladribine to prevent cell proliferation, human smooth muscle or endothelial cells (Clonetics, Walkersville, Md.) were seeded at a density of 2000 cells/cm^2 (approximately 3600 cells/well) into each well of 12-well plates and cultured with 1.5 ml of growth medium containing five percent fetal calf serum (FCS). After twenty-four hours, the growth medium was changed and fresh medium containing 10 ng/ml platelet-derived growth factor AB (PDGF AB; LIFE Technologies), as well as various concentrations of cladribine (0.001-10,000 nM) were added with triplicate wells. Medium was replaced with fresh cladribine-containing medium after three days. On day six, cells were detached by trypsinization to yield a cell suspension, lightly centrifuged to pellet and then counted manually using a Neubauer hemocytometer system. Cell viability was assessed by trypan blue exclusion.

Series [11] in a line: Porcine drug elution PK study of dual drug eluting coating. It is filed as in vivo. Particulars: after eight (8) days of implantation, single-layer coating of FIG. 83. The source says:
Another critical parameter for the performance of the thrombus resistance of a device coated with cilostazol is the duration of the drug release from the coating. This is of particular significance in the two weeks after device implantation. In the porcine drug elution PK studies of the dual drug eluting coating, both cilostazol and sirolius were slowly released from the coating, resulting in a sustained drug release profile. The purpose of the porcine PK study is to assess the local pharmacokinetics of a drug eluting stent at a given implantation time. Normally three stents are implanted in three different coronary arteries in a pig for a given time point and then retrieved for total drug recovery analysis. The stents are retrieved at predetermined time points; namely, 1, 3 and 8 days. The stents are extracted and the total amount of drug remaining on the stents is determined by analysis utilizing HPLC (high performance liquid chromatography) for total drug amount. The difference between the original amount of drug on the stent and the amount of drug retrieved at a given time represents the amount of drug released in that period. The continuous release of drug into surrounding arterial tissue is what prevents the neointimal growth and restenosis in the coronary artery. A normal plot represents the percentage of total drug released (%, y-axis) vs. time of implantation (day, x-axis). […]

As for `COc1c(C)c2c(c(O)c1C/C=C(\C)CCC(=O)O)C(=O)OC2` [mycophenolic acid], the “in vivo release from basecoat, compared with co-loaded drug” value in series [1] (porcine, EVA/BMA basecoat with rapamycin and mycophenolic acid 180 μg each, with or without BMA topcoat) is “elutes more completely over a shorter duration than the rapamycin”. The “effect of addition on the anti-proliferative rapamycin dose response curve” value in series [2] (mycophenolic acid zero to one thousand nanomolar, leftward and upward shift) is “potentiates the anti-proliferative activity of rapamycin”.

Regarding `CC(/C=C/C(=O)NO)=C\[C@@H](C)C(=O)c1ccc(N(C)C)cc1` [trichostatin A], the “anti-proliferative IC50's” value in series [3] was “low nM range”. The “inhibition of human coronary artery smooth muscle cell proliferation” value in series [4] is “completely inhibit”. Moreover, the IC50 in [4] (read-out: anti-proliferative IC50) was approximately 6 nM.

Take `COC[C@H]1OC(=O)/C(=C\N2CCCC2)C2=C(O)C(=O)C3=C([C@H](OC(C)=O)C[C@]4(C)C(=O)CC[C@@H]34)[C@]21C` [PX-867]: in series [5] (PX867 alone, concentration of about 10^−6 (unit not given)), the “inhibition of coronary artery smooth muscle cell proliferation” value is reported as “one hundred”. In addition, the combination with sirolimus entry in series [5] (PX-867 15 to 240 nM with various concentrations of sirolimus) is recorded as “strong synergistic effect”.

Consider `CO[C@H]1C[C@@H]2CC[C@@H](C)[C@@](O)(O2)C(=O)C(=O)N2CCCC[C@H]2C(=O)O[C@H]([C@H](C)C[C@@H]2CC[C@@H](OC(=O)C(C)(CO)CO)[C@H](OC)C2)CC(=O)[C@H](C)/C=C(\C)[C@@H](O)[C@@H](OC)C(=O)[C@H](C)C[C@H](C)/C=C/C=C/C=C/1C` [CCI-779], for which the “concentration in the final solution (HPLC assay)” value in series [6] (ethanol less than two percent, Vitamin E TPGS, water) turned out to be 15000 µg/mL.

With `COc1cc2c(cc1O)CC[C@@H]1[C@@H]2CC[C@]2(C)[C@@H](O)CC[C@@H]12` [Panzem®, 2-methoxyestradiol], the “human coronary artery smooth muscle cell survival” value in [7] is recorded as “do not reduce human coronary artery smooth muscle cell survival”. For the same compound, the “effect of addition to cells treated with rapamycin” value (from here on “effect of addition to cells treated”) in series [8] (Panzem 0.813 to 100 micromolar) is listed as “increases the percent of inhibition of rapamycin alone”. Also, the “inhibition of human coronary artery smooth muscle cell proliferation in vitro” value in series [8] (agent alone) was “extremely effective inhibitor”.

On to `CC[C@@]1(O)C(=O)OCc2c1cc1n(c2=O)Cc2cc3c(CN(C)C)c(O)ccc3nc2-1` [Topotecan, topotecan], for which the cytotoxicity entry in [9] (concentrations up to one micromolar) is given as “non-cytotoxic”. In series [8] (topotecan 18.8 to 300 nanomolar), the “effect of addition to cells treated” value was “increases the percent inhibition of rapamycin alone”.

On to `COc1cc([C@@H]2c3cc4c(cc3[C@@H](O[C@@H]3O[C@@H]5CO[C@@H](C)O[C@H]5[C@H](O)[C@H]3O)[C@H]3COC(=O)[C@H]23)OCO4)cc(OC)c1O` [Etoposide, etoposide], for which, in series [9] (concentrations up to ten micromolar), the cytotoxicity entry was “non-cytotoxic”. In [8] (etoposide 255.7 to eight-hundred nanomolar), the “effect of addition to cells treated” value is recorded as “increases the percent inhibition of rapamycin alone”.

With `Nc1nc(Cl)nc2c1ncn2[C@H]1C[C@H](O)[C@@H](CO)O1` [Cladribine, 2-chlorodeoxyadenosine], the “potency as inhibitor of smooth muscle cells relative to endothelial cells” value in series [10] was “approximately twice”. Besides, the “in vivo elution from polymeric stent coating, compared with co-loaded drug” value in [1] (Yorkshire pigs, EVA/BMA basecoat, BMA topcoat, Bx Velocity stents) was “elutes more rapidly than rapamycin”. For the same compound, the “effect of addition to cells treated” value in [2] (cladribine 56.25 to 900 nanomolar) was “increases the percent inhibition of rapamycin alone”. Further, the “inhibition of human coronary artery smooth muscle cell proliferation” value in [2] (non-synchronized cells, two percent fetal bovine serum) is on record as “completely inhibits”.

Consider `CO[C@H]1C[C@@H]2CC[C@@H](C)[C@@](O)(O2)C(=O)C(=O)N2CCCC[C@H]2C(=O)O[C@H]([C@H](C)C[C@@H]2CC[C@@H](O)[C@H](OC)C2)CC(=O)[C@H](C)/C=C(\C)[C@@H](O)[C@@H](OC)C(=O)[C@H](C)C[C@H](C)/C=C/C=C/C=C/1C` [rapamycin], for which the “in vivo release rate, compared with co-loaded drug” value in series [1] (porcine, PVDF basecoat with PVDF topcoat) is “slower release rate than that of mycophenolic acid”. The “drug remaining in the drug coating” value in series [11] is approximately 80%. In addition, in series [6] (4 mg/ml formulation), the “concentration relative to the solubility of sirolimus in water” value is on record as “four hundred to about one thousand”.

One may read the IC50 as the point on the concentration scale where inhibition reaches its midpoint.
